Reference: article PMC9313812, “The Pseudo‐Natural Product Rhonin Targets RHOGDI” (Angewandte Chemie (International Ed. in English), 2022)

System: GTP-bound RHO GTPases (RHOA, RAC1, CDC42)
Test: G-LISA activation assays
Assay type: cell-based
Details: 10 μM, 24 h
Protocol: 40,000 x g for 30 min at 4°C. Supernatants were collected as cytoplasmic fraction and pellets were resuspended into a homogenization buffer (0.25 M sucrose, 20 mM Tris/HCl pH 7.4, 25 mM KCl, 5 mM MgCl2) and further centrifuged (2 h at 100,000 x g) using an iodixanol (OptiPrep, Axis Shield) gradient solution. Obtained fractions were used for immunoblotting.
NIH/3T3 cells were seeded in a 96 plate (10,000 cell per well/ plate name: Essen Bioscience NO 4379). NIH/3T3 cells were grown till 80% confluence and then serum starved (0 % FCS) for 24 h. Scratch was performed using the Incucyte Woundmaker Tool. Next, 10 µM Rhonin was added to the wells. As controls, 2 µg/ml RHO inhibitor I (cat#CT04/ cytoskeleton) and 0.5% DMSO were used. Cell migration was monitored using IncuCyte ZOOM for a period of 48 h. The images were analyzed by the Incucyte Scratch Wound Analysis Software.
G-LISA activation assays for RHOA, RAC1 and CDC42 […]
GTPase primary antibody (RAC1, CDC42 or RHOA) was added and the tubes and were incubated for 45 min at room temperature. […] Absorption was detected at 490 nm using a plate reader (Tecan Sparks).
Aqueous solubility of compounds was assessed by determination of the kinetic solubility of a test compound in aqueous buffer compared to a solution in organic solvent (acetonitrile). […]

In the case of `COC(=O)C1(C(CC(=O)c2cccnc2)c2ccccc2)N=C(c2ccc(Br)cc2)C2C(=O)N(C)C(=O)C21` (stereo not shown) [7l], the “Levels of GTP-bound RHO GTPases (in words)” value was “increased”.
